ChEMBL document CHEMBL1201862, “PubChem BioAssay data set” (2004)
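Each compound was tested at five concentrations against cells in 96-well plates for 48 hours. Here, GI50 denotes the concentration required for 50% inhibition of growth.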 Calls of active or inactive are those of the source. Cut-off read from the data, not from the text of the source: active = GI50 up to about 1.1 µM and inactive = higher.

How the values were obtained:
Experiment in all cases: NCI-60 cell line screen, 48 h
A549 = tested on: A549
ACHN = tested on: ACHN
HCC 2998 = tested on: HCC 2998
HCT-116 = tested on: HCT-116
HCT-15 = tested on: HCT-15
HT-29 = tested on: HT-29
LOX IMVI = tested on: LOX IMVI
NCI-H460 = tested on: NCI-H460
SF-539 = tested on: SF-539
SK-MEL-5 = tested on: SK-MEL-5
SNB-75 = tested on: SNB-75
SR = tested on: SR
U-251 = tested on: U-251
UACC-257 = tested on: UACC-257
UO-31 = tested on: UO-31
HL-60 = tested on: HL-60

Row | SMILES | GI50 (A549) | GI50 (ACHN) | GI50 (HCC 2998) | GI50 (HCT-116) | GI50 (HCT-15) [µM] | GI50 (HT-29) | GI50 (LOX IMVI) | GI50 (NCI-H460) | GI50 (SF-539) | GI50 (SK-MEL-5) | GI50 (SNB-75) | GI50 (SR) | GI50 (U-251) | GI50 (UACC-257) | GI50 (UO-31) | GI50 (HL-60)
1 | O=C(c1ccccc1)[C@H]1Nc2ccc(Cl)cc2C2c3ccccc3CC21 (stereo partly drawn) | 34.6 µM (inactive) | 45.2 µM (inactive) | 19.9 µM (inactive) | 26 µM (inactive) | 60 | 83.9 µM (inactive) | 50.4 µM (inactive) | 63.5 µM (inactive) | > 100 µM (inactive) | 21.3 µM (inactive) | 20.8 µM (inactive) | 71.6 µM (inactive) | 47.6 µM (inactive) | 18.5 µM (inactive) | > 100 µM (inactive) | –
2 | O=C1C=C(Nc2ccccc2C(=O)CC(=O)C(=O)Nc2ccc(Cl)cc2)c2ccccc2C1=O | 14.4 µM (inactive) | 18.2 µM (inactive) | 17.5 µM (inactive) | 6.18 µM (inactive) | 10.6 | 41.5 µM (inactive) | 1.93 µM (inactive) | 16.3 µM (inactive) | 20.1 µM (inactive) | 4.32 µM (inactive) | 17.1 µM (inactive) | > 100 µM (inactive) | 20.1 µM (inactive) | 8.83 µM (inactive) | 14.7 µM (inactive) | 3.32 µM (inactive)
3 | COc1cc2ccnc3c(=C(SC)SC)c(=O)c(c1OC)c23 | 42.3 µM (inactive) | 12.9 µM (inactive) | 16.4 µM (inactive) | – | 11.9 | 12.3 µM (inactive) | 2.87 µM (inactive) | 35.3 µM (inactive) | 17.4 µM (inactive) | > 10 µM (inactive) | 10.2 µM (inactive) | – | 42.7 µM (inactive) | 13.6 µM (inactive) | 14.6 µM (inactive) | 2.26 µM (inactive)
4 | COc1cc(=O)oc(/C=C/CO)c1C | > 100 µM (inactive) | > 100 µM (inactive) | > 100 µM (inactive) | > 100 µM (inactive) | – | > 100 µM (inactive) | > 100 µM (inactive) | – | > 100 µM (inactive) | > 100 µM (inactive) | > 100 µM (inactive) | > 100 µM (inactive) | > 100 µM (inactive) | > 100 µM (inactive) | > 100 µM (inactive) | > 100 µM (inactive)
5 | O=C1OC(CC(=O)c2ccc(Cl)cc2Cl)C(Cl)=C1Cl (stereo not drawn) | > 100 µM (inactive) | > 41.1 µM (inactive) | 15.8 µM (inactive) | 18.2 µM (inactive) | 29.3 | 18.7 µM (inactive) | 24.5 µM (inactive) | > 57.3 µM (inactive) | 22 µM (inactive) | 45.6 µM (inactive) | > 43.7 µM (inactive) | 26.5 µM (inactive) | 27.6 µM (inactive) | > 100 µM (inactive) | > 42.6 µM (inactive) | 26.7 µM (inactive)
6 | CN1C/C(=C\c2ccco2)c2nc(N)nc(-c3ccco3)c2C1 | > 100 µM (inactive) | > 100 µM (inactive) | > 100 µM (inactive) | > 100 µM (inactive) | > 100 | 99.8 µM (inactive) | 60.4 µM (inactive) | > 100 µM (inactive) | > 100 µM (inactive) | 72.8 µM (inactive) | 85.3 µM (inactive) | – | > 100 µM (inactive) | > 100 µM (inactive) | > 100 µM (inactive) | 52.7 µM (inactive)
7 | C1=CC=C2NCCCCCC/N=C3\C=CC=CC=C3NCCc3cccc(c3)CC/N=C/2C=C1 | 35.2 µM (inactive) | 33 µM (inactive) | 10 µM (inactive) | 6.27 µM (inactive) | 15.8 | 6.07 µM (inactive) | 4.63 µM (inactive) | 5.42 µM (inactive) | 10.8 µM (inactive) | – | 21.3 µM (inactive) | 9.82 µM (inactive) | 18.7 µM (inactive) | 22.8 µM (inactive) | 16.7 µM (inactive) | 5.43 µM (inactive)
8 | COc1ccc2nc3cc(Cl)ccc3c(Sc3ccccc3[N+](=O)[O-])c2c1 | > 100 µM (inactive) | > 100 µM (inactive) | > 100 µM (inactive) | > 100 µM (inactive) | > 100 | – | > 100 µM (inactive) | > 100 µM (inactive) | 58.1 µM (inactive) | > 100 µM (inactive) | 16.9 µM (inactive) | > 100 µM (inactive) | > 100 µM (inactive) | > 100 µM (inactive) | > 100 µM (inactive) | –
9 | O=S(O)CCCCSSCc1ccccc1CSSCCCCS(=O)O | 28.8 µM (inactive) | 18.7 µM (inactive) | 19 µM (inactive) | – | 19.1 | 8.34 µM (inactive) | 10.5 µM (inactive) | 51.9 µM (inactive) | 15.1 µM (inactive) | 8.79 µM (inactive) | 9.16 µM (inactive) | – | 46.7 µM (inactive) | 3.87 µM (inactive) | 11.1 µM (inactive) | 5.69 µM (inactive)
